Measured values from US20080299193A1, “Pharmaceutical composition comprising eszoplicone” (Lek Pharmaceuticals d.d., priority 2007, published 2008).
Values after ≈ are worked out from the molar mass of the structure shown.

Legend:
[1] = Stress stability testing at 60° C. for 14 days, impurities by HPLC; type: physicochemical
Procedure: Tablets comprising eszopiclone with different particle sizes were prepared and exposed to stress stability testing at 60° C. for 14 days, stored in vials. The amount of formed degradation products was compared to the sample of commercially available tablets comprising eszopiclone (Lunesta®).
The HPLC analysis were performed with a WATERS Acquity UPLC system equipped with a UPLC BEH Shield, 1.7 μm, 50×2.1 mm column which was maintained in a column oven at 45° C. The mobile phase consisted of a mixture of ammonium acetate, TEA and acetonitrile with pH=5.8. The flow rate was 1.0 mL/min, and the detection wavelength was 303 nm.
All impurities eluted within 21 minutes represent the total amount of eszopiclone impurities.

[2] = Solubility of eszopiclone in phosphate buffer media at pH 6.8; type: physicochemical
Procedure: Substance containing larger particles has in general lower surface area which may result in decreased water solubility and consequently in decreased biological activity due to impaired absorption from the gastrointestinal tract. […] The solubility was measured at pH 6.8, which represents the pH in the small intestine, a primary site of drug absorption. Therefore, no effect on the gastrointestinal absorption can be expected due to larger particles of eszopiclone.
The solubility of eszopiclone in phosphate buffer media at pH 6.8 was studied at room temperature. An excess of sample was placed in the laboratory beaker filled with 50 ml media and mixed on the magnetic stirrer for 60 minutes. Afterwards, the part of the dispersion was taken from the beaker, filtered through the 0.45 μm filter and the concentration of eszopiclone was determined by UV spectroscopy.

For `CN1CCN(C(=O)O[C@H]2c3nccnc3C(=O)N2c2ccc(Cl)cn2)CC1` [Substance in a crystal form, (+)-5(S)-6-(chloropyridin-2-yik)-7-oxo-6,7-dihydro-5H-pyrrolo[3,4-b]pyrazin-5-yl 4-methylpiperazine-1-carboxylate], the “Stability at elevated temperature (in words)” value ([1]; 60° C. for 14 days) was “stable”, the “Total sum of impurities” value ([1]; 14 days, 60° C., stored in vials, all impurities eluted within 21 minutes) was <0.05% and the Max. unknown ([1]; 14 days, 60° C., stored in vials, maximum unknown impurity) was <0.05%.

In the case of `CN1CCN(C(=O)O[C@H]2c3nccnc3C(=O)N2c2ccc(Cl)cn2)CC1` [Eszopiclone with d(0.9) > 200 μm], the “Solubility compared to substance having fine particles (in words)” value ([2]; pH 6.8) is reported as “comparable” and the solubility at 60 min ([2]; phosphate buffer, pH 6.8, aqueous buffer, thermodynamic from solid, phosphate buffer pH 6.8, room temperature, 60 minutes stirring, filtered 0.45 μm, UV spectroscopy) is reported as 570 µg/mL (≈ 1470 µM).

For `CN1CCN(C(=O)O[C@H]2c3nccnc3C(=O)N2c2ccc(Cl)cn2)CC1` [Eszopiclone with d(0.9) = 32.4 μm], the “Solubility at pH 6.8” value ([2]; phosphate buffer pH 6.8, room temperature, 60 minutes stirring, filtered 0.45 μm, UV spectroscopy) was 0.44 mg/ml.
